From patent US7553966B2, “Glucocorticoid mimetics, methods of making them, pharmaceutical compositions, and uses thereof” (Boehringer Ingelheim Pharmaceuticals, Inc., priority 2002, dated 2009) come the findings set out here.

The subject of assay [1] is glucocorticoid receptor. The experiment in a line: Glucocorticoid Receptor Cell Assays (agonist activity in one or more of the above assays). As to conditions: qualitative statement; assay not specified. It counts as cell-based. The method, then: B. Glucocorticoid Receptor Cell Assays
1. Induction of Aromatase in Fibroblasts (Cell Assay for Transactivation)
Dexamethasone, a synthetic ligand to the glucocorticoid receptor (GR), induces expression of aromatase in human foreskin fibroblast cells. The activity of aromatase is measured by the conversion of testosterone to estradiol in culture media.
On the day of the experiment, the media in the wells is replaced with fresh media. Cells are treated with test compounds to final concentrations of 10^−5 M to 10^−8 M, and testosterone to a final concentration of 300 ng/mL. Each well has a total volume of 100 μL. Samples are made in duplicates. Control wells include: (a) wells that receive testosterone only, and (b) wells that receive testosterone plus 2 μM of dexamethasone to provide maximum induction of aromatase. Plates are incubated at 37° C. overnight (15 to 18 hours), and supernatants are harvested at the end of incubation. […] The amount of estradiol is inversely proportional to the ELISA signals in each well. The extent of aromatase induction by test compounds is expressed as a relative percentage to dexamethasone. EC50 values of test compounds are derived by non-linear curve fitting.
2. Inhibition of IL-6 Production in Fibroblasts (Cell Assay for Transrepression)
Human foreskin fibroblast cells produce IL-6 in response to stimulation by pro-inflammatory cytokine IL-1.
On the next day, media in the wells is replaced with fresh media. Cells are treated with IL-1 (rhIL-1α, R&D Systems Cat. No. 200-LA) to a final concentration of 1 ng/mL, and with test compounds to final concentrations of 10^−5 M to 10^−8 M, in a total volume of 200 μL per well. Samples are done in duplicates. […] Positive control wells receive IL-1 only and represent maximum (or 100%) amount of IL-6 production. Plates are incubated at 37° C. overnight (15 to 18 hours), and supernatants are harvested at the end of incubation. IL-6 levels in the supernatants are determined by the ELISA kits for IL-6 (MedSystems Diagnostics GmbH, Vienna, Austria, Cat. No. BMS213TEN) according to manufacture's instructions. The extent of inhibition of IL-6 by test compounds is expressed in percentage relative to positive controls. IC50 values of test compounds are derived by non-linear curve fitting.
Evaluation of agonist or antagonist activity of compounds binding to the glucocorticoid receptor may be determined by any of the assays.
3. Modulation of Tyrosine Aminotransferase (TAT) Induction in Rat Hepatoma Cells
Testing of compounds for agonist or antagonist activity in induction of tyrosine aminotransferase (TAT) in rat hepatoma cells.
H4-II-E-C3 cells were incubated overnight in 96 well plates (20,000 cells/100 μL/well) in MEM medium containing 10% heat inactivated FBS and 1% nonessential amino acids. On the next day, cells were stimulated with the indicated concentrations of dexamethasone or test compound (dissolved in DMSO, final DMSO concentration 0.2%) for 18 hours. Control cells were treated with 0.2% DMSO. After 18 hours, the cells were lysed in a buffer containing 0.1% Triton X-100 and the TAT activity was measured in a photometric assay using tyrosine and alpha-ketoglutarate as substrates.
For measuring antagonist activity, the hepatoma cells were pre-stimulated by addition of dexamethasone (concentration ranges from 3×10^−9 M to 3×10^−8 M) shortly before the test compound was applied to the cells.
4. Modulation of MMTV-Luc Induction in HeLa Cells
Testing of compounds for agonist or antagonist activity in stimulation of MMTV-(mouse mammary tumor virus) promoter in HeLa cells.
Cells were cultured overnight in DMEM medium without phenol red, supplemented with 3% CCS (charcoal treated calf serum) and then transferred to 96 well plates (15,000 cells/100 μL/well).

Assay [2] has as its target T1, human glucocorticoid receptor (GR) complex (Homo sapiens, UniProt P04150).
T1 construct: made in house; host or cells: insect expression system (baculovirus lysate)
T1 sequence (P04150 1-777): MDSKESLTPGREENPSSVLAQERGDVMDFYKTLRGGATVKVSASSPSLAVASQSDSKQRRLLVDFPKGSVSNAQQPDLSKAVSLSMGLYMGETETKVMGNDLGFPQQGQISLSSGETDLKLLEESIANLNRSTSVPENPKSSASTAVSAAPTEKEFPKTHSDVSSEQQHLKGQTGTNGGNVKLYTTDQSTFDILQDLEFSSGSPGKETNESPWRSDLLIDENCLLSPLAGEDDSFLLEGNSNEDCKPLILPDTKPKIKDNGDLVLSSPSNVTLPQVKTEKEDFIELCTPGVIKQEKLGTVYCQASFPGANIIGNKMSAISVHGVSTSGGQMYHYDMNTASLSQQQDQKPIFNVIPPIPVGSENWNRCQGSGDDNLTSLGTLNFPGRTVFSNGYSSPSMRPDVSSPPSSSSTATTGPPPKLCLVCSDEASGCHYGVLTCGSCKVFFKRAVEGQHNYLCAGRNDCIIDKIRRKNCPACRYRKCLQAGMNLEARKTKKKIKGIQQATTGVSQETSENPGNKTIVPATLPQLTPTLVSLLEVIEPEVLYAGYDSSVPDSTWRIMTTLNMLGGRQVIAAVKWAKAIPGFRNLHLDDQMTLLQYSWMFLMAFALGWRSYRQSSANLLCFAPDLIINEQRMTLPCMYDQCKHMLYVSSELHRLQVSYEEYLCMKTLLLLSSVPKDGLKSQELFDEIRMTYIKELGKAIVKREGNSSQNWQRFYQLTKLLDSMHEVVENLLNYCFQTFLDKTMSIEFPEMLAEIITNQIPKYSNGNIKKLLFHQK
The experiment in a line: Glucocorticoid Receptor Competitive Binding Assay (fluorescence polarization, TAMRA-labeled dexamethasone probe). As to conditions: qualitative statement; competition with TAMRA-labeled dexamethasone. The method, then: Compounds of the invention were evaluated for binding to the steroid receptor by a fluorescence polarization competitive binding assay.
A. Glucocorticoid Receptor Competitive Binding Assay
Step 1. Characterization of the Fluorescent Probe
The wavelengths for maximum excitation and emission of the fluorescent probe should first be measured. An example of such a probe is rhodamine (TAMRA)-labeled dexamethasone.
The affinity of the probe for the steroid receptor was then determined in a titration experiment. The fluorescence polarization value of the probe in assay buffer was measured on an SLM-8100 fluorometer using the excitation and emission maximum values described above. Aliquots of expression vector lysate were added and fluorescence polarization was measured after each addition until no further change in polarization value was observed. Non-linear least squares regression analysis was used to calculate the dissociation constant of the probe from the polarization values obtained for lysate binding to the probe.
Step 2. Screening for Inhibitors of Probe Binding
This assay uses fluorescence polarization (FP) to quantitate the ability of test compounds to compete with tetramethyl rhodamine (TAMRA)-labeled dexamethasone for binding to a human glucocorticoid receptor (GR) complex prepared from an insect expression system. The assay buffer was: 10 mM TES, 50 mM KCl, 20 mM Na2MoO4. 2H2O, 1.5 mM EDTA, 0.04% w/v CHAPS, 10% v/v glycerol, 1 mM dithiothreitol, pH 7.4. Test compounds were dissolved to 1 mM in neat DMSO and then further diluted to 10× assay concentration in assay buffer supplemented with 10% v/v DMSO. Test compounds were serially diluted at 10× assay concentrations in 10% DMSO-containing buffer in 96-well polypropylene plates. […] Positive controls were reaction mixtures containing no test compound; negative controls (blanks) were reaction mixtures containing 0.7 μM to 2 μM dexamethasone. […] IC50 values were determined by iterative non-linear curve fitting of the FP signal data to a 4-parameter logistic equation.

Turning to `Cc1ccc(F)cc1C(C)(C)CC(O)(Cc1cc2ccncc2[nH]1)C(F)(F)F` (stereo not drawn) [1,1,1-Trifluoro-4-(5-fluoro-2-methylphenyl)-4-methyl-2-(1H-pyrrolo[2,3-c]pyridin-2-ylmethyl)pentan-2-ol], the “activity as agonists of the glucocorticoid receptor function in one or more of the above assays” value in assay [1] is on record as “potent agonists”.
Same read-out and setting: under `CC(C)(CC(O)(Cn1cc(C#N)c2ccccc21)C(F)(F)F)c1cccc2c1OCC2` (stereo not drawn) stands “potent agonists”; under `CC(C)(CC(O)(Cc1[nH]c2ccccc2c1C#N)C(F)(F)F)c1cccc2c1OCC2` (stereo not drawn) [2-[4-(2,3-Dihydrobenzofuran-7-yl)-2-hydroxy-4-methyl-2-trifluoromethylpentyl]-1H-indole-3-carbonitrile], “potent agonists”.
Take `COC(=O)c1ccc2[nH]c(CC(O)(CC(C)(C)c3cc(Br)ccc3OC)C(F)(F)F)cc2c1` (stereo not drawn) [2-[4-(5-Bromo-2-methoxyphenyl)-2-hydroxy-4-methyl-2-trifluoromethylpentyl]-1H-indole-5-carboxylic acid methyl ester]: in assay [2], the “activity in the GR binding assay” value is “potent activity”.
Take `CC(C)(CC(O)(Cc1cc2ccccc2[nH]1)C(F)(F)F)c1cccc(F)c1` (stereo not drawn) [1,1,1-Trifluoro-4-(3-fluorophenyl)-2-(1H-indol-2-ylmethyl)-4-methylpentan-2-ol]: the “activity in the GR binding assay” value in assay [2] is listed as “potent activity”.
`CC(C)(CC(O)(Cc1cc2ccccc2[nH]1)C(F)(F)F)c1cccc(O)c1` (stereo not drawn) [3-[4,4,4-Trifluoro-3-hydroxy-3-(1H-indol-2-ylmethyl)-1,1-dimethylbutyl]phenol]: the “activity in the GR binding assay” value in assay [2] was “potent activity”.
The same measure, in the same setting: under `CC(C)(CC(O)(Cc1cc(Cl)nc(Cl)c1)C(F)(F)F)c1cc(F)ccc1O` (stereo not drawn) [2-[3-(2,6-Dichloropyridin-4-ylmethyl)-4,4,4-trifluoro-3-hydroxy-1,1-dimethylbutyl]-4-fluorophenol] stands “potent activity”; under `CC(C)(CC(O)(Cc1cc2ccccc2[nH]1)C(F)(F)F)c1ccsc1` (stereo not drawn) [1,1,1-Trifluoro-2-(1H-indol-2-ylmethyl)-4-methyl-4-thiophen-3-ylpentan-2-ol], “potent activity”; under `COC(=O)c1ccc2[nH]c(CC(O)(CC(C)(C)c3ccc(F)cc3OC)C(F)(F)F)cc2c1` (stereo not drawn) [2-[4-(4-Fluoro-2-methoxyphenyl)-2-hydroxy-4-methyl-2-trifluoromethylpentyl]-1H-indole-5-carboxylic acid methyl ester], “potent activity”.
The same measure, in the same setting: to `COc1ccc(Br)cc1C(C)(C)CC(O)(Cc1cc2c(C)cc(C#N)cc2[nH]1)C(F)(F)F` (stereo not drawn) [2-[4-(5-Bromo-2-methoxyphenyl)-2-hydroxy-4-methyl-2-trifluoromethylpentyl]-4-methyl-1H-indole-6-carbonitrile] belongs “potent activity”; to `CC(C)(CC(O)(Cn1cc(C#N)c2ccccc21)C(F)(F)F)c1cccc2c1OCC2` (stereo not drawn) [1-[4-(2,3-Dihydrobenzofuran-7-yl)-2-hydroxy-4-methyl-2-trifluoromethylpentyl]-1H-indole-3-carbonitrile], “potent activity”; to `CC(C)(CC(O)(Cc1cc2cnccc2[nH]1)C(F)(F)F)c1ccc(F)cc1O` (stereo not drawn) [5-Fluoro-2-[4,4,4-trifluoro-3-hydroxy-1,1-dimethyl-3-(1H-pyrrolo[3,2-c]pyridin-2-ylmethyl)butyl]phenol], “potent activity”.
On to `COc1ccc(F)cc1C(C)(C)CC(O)(Cc1cc2cc(F)ccc2[nH]1)C(F)(F)F` (stereo not drawn) [1,1,1-Trifluoro-2-(5-fluoro-1H-indol-2-ylmethyl)-4-(5-fluoro-2-methoxyphenyl)-4-methylpentan-2-ol], for which the “activity in the GR binding assay” value in assay [2] is “potent activity”.
`CC(C)(CC(O)(Cc1cc2cccc(F)c2[nH]1)C(F)(F)F)c1cccc2c1OCC2` (stereo not drawn) [4-(2,3-Dihydrobenzofuran-7-yl)-1,1,1-trifluoro-2-(7-fluoro-1H-indol-2-ylmethyl)4-methylpentan-2-ol]: in assay [2], the “activity in the GR binding assay” value is recorded as “potent activity”.
For `COc1c(C(C)(C)CC(O)(Cc2cc3ccccc3[nH]2)C(F)(F)F)ccc2ccccc12` (stereo not drawn) [1,1,1-Trifluoro-2-(1H-indol-2-ylmethyl)-4-(1-methoxynaphthalen-2-yl)-4-methylpentan-2-ol], in assay [2], the “activity in the GR binding assay” value was “potent activity”.
On to `Cc1cccc(C)c1C(C)(C)CC(O)(Cc1ccnc2ccccc12)C(F)(F)F` (stereo not drawn) [4-(2,6-Dimethylphenyl)-1,1,1-trifluoro-4-methyl-2-quinolin-4-ylmethylpentan-2-ol], for which, in assay [2], the “activity in the GR binding assay” value is reported as “potent activity”.
Take `CCc1cccc(C(C)(C)CC(O)(Cc2cc3ccccc3[nH]2)C(F)(F)F)c1O` (stereo not drawn) [2-Ethyl-6-[4,4,4-trifluoro-3-hydroxy-3-(1H-indol-2-ylmethyl)-1,1-dimethylbutyl]phenol]: the “activity in the GR binding assay” value in assay [2] is on record as “potent activity”.
As to `COc1ccc(F)cc1C(C)(C)CC(O)(Cc1nc2ccc(F)cc2[nH]1)C(F)(F)F` (stereo not drawn) [1,1,1-Trifluoro-2-(6-fluoro-1H-benzoimidazol-2-ylmethyl)-4-(5-fluoro-2-methoxyphenyl)-4-methylpentan-2-ol], the “activity in the GR binding assay” value in assay [2] is recorded as “potent activity”.
